From the CheMixHub ionic liquid set
Where “and” joins values, the source holds several entries; their conditions need not be identical. Identical values can stand only once.

Assay: xn = mol fraction of the nth substance listed

CO + COP(=O)([O-])OC.Cn1cc[n+](C)c1
101 kPa, x1 = 1
Settings | viscosity [mPa·s]
303.15 K | 0.521
318.15 K | 0.44

CO + CS(=O)(=O)[O-].C[N+](C)(CCO)CCO
101 kPa, x2 = 0
Settings | viscosity [mPa·s]
298.15 K | 0.576
303.15 K | 0.539
308.15 K | 0.506
313.15 K | 0.477
318.15 K | 0.453
323.15 K | 0.43

CC[n+]1ccn(C)c1.F[B-](F)(F)F + CS(C)=O
Settings | electrical conductivity | viscosity [mPa·s]
293.15 K, 100 kPa, x2 = 0.4781 | – | 19.1
298.1 K, 100 kPa, x1 = 0.021 | 0.55 S/m and 0.79 S/m | –
298.1 K, 100 kPa, x1 = 0.218 | 1.77 S/m | –
298.1 K, 100 kPa, x1 = 0.381 | 1.56 S/m | –
298.1 K, 100 kPa, x1 = 0.623 | 1.37 S/m | –
298.15 K, 100 kPa, x2 = 0.4098 | – | 19.1
303.15 K, 100 kPa, x2 = 0.7866 | – | 4.91
303.15 K, 101 kPa, x2 = 0.2996 | – | 17.26
303.15 K, 101 kPa, x2 = 0.6002 | – | 8.52
303.15 K, 101 kPa, x2 = 0.7996 | – | 4.395
313.15 K, 100 kPa, x2 = 0 | – | 24.8
313.15 K, 100 kPa, x2 = 0.2931 | – | 15.4
313.15 K, 101 kPa, x2 = 0.2996 | – | 12.88
323.15 K, 101 kPa, x2 = 0.4 | – | 8.2
323.15 K, 101 kPa, x2 = 0.9002 | – | 1.996
333.15 K, 101 kPa, x2 = 0.9002 | – | 1.71
343.15 K, 100 kPa, x2 = 0 | – | 11.7
343.15 K, 100 kPa, x2 = 0.2931 | – | 7.6
343.15 K, 100 kPa, x2 = 0.8959 | – | 1.61
353.15 K, 100 kPa, x2 = 0.4781 | – | 4.48

COCCCC[n+]1ccn(C)c1.NCC(=O)[O-] + CS(C)=O
100 kPa
Settings | viscosity [mPa·s]
288.15 K, x1 = 0.4986 | 49.18
293.15 K, x1 = 0.4986 | 37.24
293.15 K, x1 = 0.6006 | 51.07
293.15 K, x1 = 0.7941 | 84.3
298.15 K, x1 = 0.7941 | 65.57
298.15 K, x1 = 1 | 97.2
303.15 K, x1 = 0.1009 | 4.18
303.15 K, x1 = 0.299 | 10.12
308.15 K, x1 = 0.1009 | 3.59
308.15 K, x1 = 0.299 | 8.41
308.15 K, x1 = 0.701 | 34.9
318.15 K, x1 = 0.1009 | 2.72

CO + C[N+](C)(C)CCC[N+]1(C)CCCCC1.N#C[N-]C#N.N#C[N-]C#N
100 kPa, x2 = 0
Settings | viscosity [mPa·s]
293.15 K | 0.584
323.15 K | 0.395

CO + C[N+](C)(C)CCO.NCC(=O)[O-]
100 kPa, x2 = 0
Settings | viscosity [mPa·s]
298.15 K | 0.58
303.15 K | 0.55
308.15 K | 0.51
313.15 K | 0.47
318.15 K | 0.44
323.15 K | 0.41

OCCCCCCO + C[N+](C)(C)Cc1ccccc1.[Cl-]
101.13 kPa, x2 = 0.5
Settings | electrical conductivity [S/m] | viscosity [mPa·s]
298 K | 0.084 | –
308 K | – | 73

O=C([O-])C1=NN(c2ccc(S(=O)(=O)[O-])cc2)C(=O)C1N=Nc1ccc(S(=O)(=O)[O-])cc1.[Na+].[Na+].[Na+] (stereo not given) + C[N+](C)(C)Cc1ccccc1.[Cl-] + O
electrical conductivity [S/m], 101.3 kPa, frequency 0.001 MHz
Settings | 298.15 K | 308.15 K | 318.15 K
x1 = 0.0001802, x2 = 1.802e-05 | 0.132 | 0.158 | 0.197
x1 = 0.0001803, x2 = 5.405e-05 | 0.142 | 0.177 | 0.213
x1 = 0.0001803, x2 = 9.008e-05 | 0.168 | 0.187 | 0.228
x1 = 0.0004504, x2 = 1.801e-05 | 0.231 | 0.276 | 0.355
x1 = 0.0004505, x2 = 5.403e-05 | 0.254 | 0.317 | 0.388
x1 = 0.0004507, x2 = 9.005e-05 | 0.303 | 0.331 | 0.413
x1 = 0.0007204, x2 = 1.801e-05 | 0.331 | 0.392 | 0.498
x1 = 0.0007206, x2 = 5.402e-05 | 0.359 | 0.447 | 0.535
x1 = 0.0007209, x2 = 9.003e-05 | 0.419 | 0.477 | 0.558
x1 = 0.0009903, x2 = 1.8e-05 | 0.421 | 0.512 | 0.641
x1 = 0.0009906, x2 = 5.4e-05 | 0.463 | 0.588 | 0.677
x1 = 0.0009909, x2 = 9e-05 | 0.57 | 0.614 | 0.723
x1 = 0.00126, x2 = 1.8e-05 | 0.519 | 0.638 | 0.777
x1 = 0.00126, x2 = 5.399e-05 | 0.583 | 0.716 | 0.826
x1 = 0.001261, x2 = 8.998e-05 | 0.684 | 0.739 | 0.863
x1 = 0.00153, x2 = 1.799e-05 | 0.641 | 0.753 | 0.915
x1 = 0.00153, x2 = 5.397e-05 | 0.705 | 0.841 | 0.972
x1 = 0.001531, x2 = 8.995e-05 | 0.812 | 0.88 | 1.01

viscosity [mPa·s], 101.3 kPa
Settings | 298.15 K | 308.15 K | 318.15 K
x1 = 0.0001802, x2 = 1.802e-05 | 0.905 | 0.747 | 0.629
x1 = 0.0001803, x2 = 5.405e-05 | 0.923 | 0.769 | 0.646
x1 = 0.0001803, x2 = 9.008e-05 | 0.941 | 0.789 | 0.666
x1 = 0.0004504, x2 = 1.801e-05 | 0.923 | 0.764 | 0.644
x1 = 0.0004505, x2 = 5.403e-05 | 0.944 | 0.788 | 0.664
x1 = 0.0004507, x2 = 9.005e-05 | 0.962 | 0.809 | 0.685
x1 = 0.0007204, x2 = 1.801e-05 | 0.938 | 0.778 | 0.658
x1 = 0.0007206, x2 = 5.402e-05 | 0.962 | 0.803 | 0.679
x1 = 0.0007209, x2 = 9.003e-05 | 0.983 | 0.826 | 0.701
x1 = 0.0009903, x2 = 1.8e-05 | 0.952 | 0.791 | 0.67
x1 = 0.0009906, x2 = 5.4e-05 | 0.977 | 0.818 | 0.693
x1 = 0.0009909, x2 = 9e-05 | 1 | 0.842 | 0.717
x1 = 0.00126, x2 = 1.8e-05 | 0.964 | 0.803 | 0.681
x1 = 0.00126, x2 = 5.399e-05 | 0.992 | 0.832 | 0.707
x1 = 0.001261, x2 = 8.998e-05 | 1.015 | 0.858 | 0.731
x1 = 0.00153, x2 = 1.799e-05 | 0.977 | 0.815 | 0.693
x1 = 0.00153, x2 = 5.397e-05 | 1.007 | 0.847 | 0.72
x1 = 0.001531, x2 = 8.995e-05 | 1.032 | 0.873 | 0.746

CO + C[N+](C)(CCCS(=O)(=O)O)C1CCCCC1.Cc1ccc(S(=O)(=O)[O-])cc1
101 kPa, x2 = 0
Settings | viscosity [mPa·s]
303.15 K | 0.5044
308.15 K | 0.4775
313.15 K | 0.4515
318.15 K | 0.4244
323.15 K | 0.4033
328.15 K | 0.3883

CCCC[n+]1ccn(C)c1.[I-] + F[B-](F)(F)F.[Li+]
Settings | electrical conductivity [S/m]
308.15 K, 101 kPa, x2 = 0 | 0.0286

CC[n+]1ccn(C)c1.O=S(=O)([N-]S(=O)(=O)C(F)(F)F)C(F)(F)F + F[B-](F)(F)F.[Li+]
101 kPa, x1 = 1
Settings | electrical conductivity [S/m]
288.15 K | 0.611
298.15 K | 0.883
333.15 K | 2.18

CC[n+]1ccn(C)c1.O=S(=O)([N-]S(=O)(=O)C(F)(F)F)C(F)(F)F + F[P-](F)(F)(F)(F)F.[Li+]
101 kPa, x1 = 1
Settings | electrical conductivity [S/m]
288.15 K | 0.611
298.15 K | 0.883
333.15 K | 2.18

C[N+](CCO)(CCO)CCOCCO.[Cl-] + NC(N)=O
100 kPa, x1 = 0.5
Settings | viscosity [mPa·s]
328.15 K | 560
343.15 K | 221
348.15 K | 169
353.15 K | 131
